Results: PMC7096398, “Oxytocin Receptors Regulate Social Preference in Zebrafish” (Scientific Reports, 2020)
Entries after “also recorded” stand apart in the source; their conditions may differ.

Experiments:
monkeys = settings: cited from earlier work
larval zebrafish = experiment: Social preference in larval zebrafish; assay type: in vivo, zebrafish (Danio rerio); settings: 100 µM immersion 1 h
Description: The social preference test for young zebrafish has been described elsewhere. In brief, experiments were performed in custom-built arenas; see Fig. 5, consisting of laser-cut 5 mm high white acrylic walls placed on transparent flooring with transparent acrylic partitions. The dimensions of each arena were 40 × 32 mm, and the chambers containing stimulus fish was 15 × 15 mm. The areas in front of these stimulus compartments were designated Social Area (where the stimulus was placed) or Non-Social Area (where the stimulus was not placed). The water depth was 5 mm, and water parameters matched the ones housing water parameters. Nine arenas were placed adjacent to each other on an infrared (IR) back-light diffusing both IR and white light (Noldus, Wageningen, the Netherlands), with a digital monochrome high resolution GigE camera overhead (Noldus, Wageningen, the Netherlands), and surrounded by an opaque enclosure.
A 10 mM stock solution was prepared by dissolving L-368,899 in H2O (Milli-Q water purification system), and subsequently stored at −20 °C. The stock solution was diluted to a working concentration of 100 µM by addition of water adjusted to the same parameters kept in the fish facility. Larvae were immersed in 100 µM L-368,899 solution (treated fish) or in water matching housing conditions (control fish) for 1 hour prior to testing. Focal larvae were then transferred to test arenas and filmed for 15 minutes, with no stimulus present (acclimation period; AC). Following this, one stimulus larva was placed in a randomly selected stimulus chamber of each arena, and focal larvae were filmed for another 15 minutes (social cue period; SC). A total of 137 vehicle-treated fish and 109 antagonist-treated fish were tested, and after using the exclusion criteria described below, 87 vehicle-treated fish and 77 antagonist-treated fish were included in the statistical analyses.
Larval results were analysed using a social preference index (SPI). SPI was calculated by subtracting the time a focal larva spent in the Non-Social Area from the time it spent in the Social Area, and then dividing the result by the total time the larva was tracked in the entire arena. […] SPI was calculated for each focal larva for the AC period and the SC period separately. […] All data was analysed using paired T-tests to investigate change within the control and treated groups, and Student’s T-tests to investigate difference between the groups for each phase.

rodents = settings: cited from earlier work
Description: Intraperitoneal injections were conducted using a 1 mL U-100 BD MicroFine™ Insulin Syringe (Becton Dickinson France S.A.S., France). Post injection, animals were placed into their holding tanks for one hour to recover. […] Following this, focal fish were individually placed in the middle of the test tank and left ...

adult zebrafish = experiment: Novel tank diving in adult zebrafish; assay type: in vivo, zebrafish (Danio rerio)
Description: Adult and larval behavioural testing was performed between 9 AM and 4 PM. All fish were fed prior to and after experiments, and larvae were also given an additional feed at midday. Adult fish were of a 1:1 sex ratio, and focal fish and stimulus fish were size-matched. Adult fish and shoals were filmed using a web camera and Debut Video Capture Software (NCH Software, Greenwood Village, USA), and videos were analysed using EthoVision version 11 (Noldus, Wageningen, the Netherlands).
A novel tank diving test was executed individually in order to examine the effect of the antagonist on anxiety in zebrafish. Anxiety-like behaviour in zebrafish is evident in a tendency to move towards the bottom of novel environments. The novel tank diving test used here has been described elsewhere. In brief, the same procedure as for the shoaling test described above was used, except that fish were housed in groups of 4–6 individuals 24 hours prior to the experiment in order to keep netting and potential stress to a minimum, and each fish was placed the test tank individually. A total of 20 vehicle-treated fish and 20 antagonist-treated fish were tested.
All data for the social preference and novel tank diving experiments in adults were extracted as processed means per minute from EthoVision. For the shoaling experiments, raw data was exported from EthoVision, and then post-processed by an in-house script written in Python 3.4, in order to compute IFD, NND, and FND as described elsewhere. For timelines, repeated measures analysis of variance (RM-ANOVA) was used. For pairwise comparisons of total means between groups, Student’s T-tests were used.

For `Cc1ccccc1N1CCN(S(=O)(=O)C[C@]23CC[C@H](C[C@@H]2NC(=O)[C@@H](N)CCS(C)(=O)=O)C3(C)C)CC1` [L-368,899], the “Behavioural effects one hour after treatment” value (monkeys) is listed as “robust behavioural effects”, the “Social preference in larvae, in words” value (larval zebrafish) is listed as “decreased social preference” and the “Increase in SPI from acclimation to social cue” value (larval zebrafish; t(76) = 0.177, p = 0.86, vehicle larvae significantly increased, p = 0.039) is listed as “not present”. For the same compound, the “SPI during the social cue period vs vehicle” value (larval zebrafish; t(162) = 1,98, p = 0.049) was “significantly lower SPI”, the “Social Preference Index (AC)” value (larval zebrafish; 3-week-old larvae, acclimation phase, mean ± SEM, n = 77, vehicle 0.06 ± 0.04) was 0.00 ± 0.05 and the “Locomotion (AC): Velocity” value (larval zebrafish; 3-week-old larvae, acclimation phase, mean ± SEM, n = 77, vehicle 0.28 ± 0.01) was 0.30 ± 0.02 cm/s. The “Locomotion (AC): Distance” value (larval zebrafish; 3-week-old larvae, acclimation phase, mean ± SEM, n = 77, vehicle 249 ± 12) was 265 ± 14 cm/min, the “Social Preference Index (SC)” value (larval zebrafish; 3-week-old larvae, social cue phase, mean ± SEM, n = 77, vehicle 0.18 ± 0.05) was 0.01 ± 0.06 and the “Behavioural effects one hour after treatment” value (rodents) was “robust behavioural effects”. For the same compound, the “Anxiety behaviour: Distance to bottom” value (adult zebrafish; adult novel tank diving, i.p., 1 h before test, mean ± SEM, n = 20, vehicle 2.7 ± 0.4) was 3.1 ± 0.4 cm, the “Locomotion: Velocity” value (adult zebrafish; adult novel tank diving, i.p., 1 h before test, mean ± SEM, n = 20, vehicle 3.1 ± 0.2, p = 0.47) was 2.9 ± 0.2 cm/s and the “Anxiety behaviour: Duration in top zone” value (adult zebrafish; adult novel tank diving, i.p., 1 h before test, mean ± SEM, n = 20, vehicle 7.0 ± 2.4) was 8.8 ± 2.4 s/min. For the same compound, the “Locomotion: Distance” value (adult zebrafish; adult novel tank diving, i.p., 1 h before test, mean ± SEM, n = 20, vehicle 186 ± 11, p = 0.49) was 174 ± 14 cm/min, the “Anxiety behaviour: Latency to top zone” value (adult zebrafish; adult novel tank diving, i.p., 1 h before test, mean ± SEM, n = 20, vehicle 327 ± 58) was 387 ± 81 s and the “Anxiety, in words” value (adult zebrafish; adults, antagonist vs vehicle) was “did not affect anxiety; also recorded: no differences in any of the anxiety parameters”. The “Activity parameters vs vehicle, novel tank diving test” value (adult zebrafish; average distance p = 0.49, average velocity p = 0.47) was “no significant differences”.
